One assay has as its target Nonstructural protein 1 (Influenza A virus, UniProt Q194T2). Type of assay: functional, Influenza A virus (A/California/07/2009(H1N1)).
Another assay addresses T1, Protein skinhead-1 (Caenorhabditis elegans, UniProt P34707).
T1 sequence (P34707 whole entry): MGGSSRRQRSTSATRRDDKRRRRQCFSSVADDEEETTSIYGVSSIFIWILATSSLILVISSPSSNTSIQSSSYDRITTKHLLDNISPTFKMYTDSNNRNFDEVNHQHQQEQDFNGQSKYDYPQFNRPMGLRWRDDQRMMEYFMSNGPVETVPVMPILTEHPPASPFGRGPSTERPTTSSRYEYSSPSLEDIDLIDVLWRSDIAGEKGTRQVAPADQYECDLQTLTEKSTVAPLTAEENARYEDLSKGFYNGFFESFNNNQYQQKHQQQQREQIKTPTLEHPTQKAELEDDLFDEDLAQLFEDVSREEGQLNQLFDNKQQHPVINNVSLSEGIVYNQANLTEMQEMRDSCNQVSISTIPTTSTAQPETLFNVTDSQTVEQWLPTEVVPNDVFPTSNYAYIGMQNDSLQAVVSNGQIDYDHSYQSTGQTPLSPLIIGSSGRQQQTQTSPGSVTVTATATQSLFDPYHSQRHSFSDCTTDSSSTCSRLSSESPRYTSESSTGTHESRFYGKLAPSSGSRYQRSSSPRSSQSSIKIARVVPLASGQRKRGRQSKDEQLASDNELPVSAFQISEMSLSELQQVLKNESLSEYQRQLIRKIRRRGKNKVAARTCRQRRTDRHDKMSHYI
Type of assay: functional.

For assay [1], the target named is T2, DNA repair and recombination protein RAD54-like (Homo sapiens, UniProt Q92698).
T2 sequence (Q92698 whole entry): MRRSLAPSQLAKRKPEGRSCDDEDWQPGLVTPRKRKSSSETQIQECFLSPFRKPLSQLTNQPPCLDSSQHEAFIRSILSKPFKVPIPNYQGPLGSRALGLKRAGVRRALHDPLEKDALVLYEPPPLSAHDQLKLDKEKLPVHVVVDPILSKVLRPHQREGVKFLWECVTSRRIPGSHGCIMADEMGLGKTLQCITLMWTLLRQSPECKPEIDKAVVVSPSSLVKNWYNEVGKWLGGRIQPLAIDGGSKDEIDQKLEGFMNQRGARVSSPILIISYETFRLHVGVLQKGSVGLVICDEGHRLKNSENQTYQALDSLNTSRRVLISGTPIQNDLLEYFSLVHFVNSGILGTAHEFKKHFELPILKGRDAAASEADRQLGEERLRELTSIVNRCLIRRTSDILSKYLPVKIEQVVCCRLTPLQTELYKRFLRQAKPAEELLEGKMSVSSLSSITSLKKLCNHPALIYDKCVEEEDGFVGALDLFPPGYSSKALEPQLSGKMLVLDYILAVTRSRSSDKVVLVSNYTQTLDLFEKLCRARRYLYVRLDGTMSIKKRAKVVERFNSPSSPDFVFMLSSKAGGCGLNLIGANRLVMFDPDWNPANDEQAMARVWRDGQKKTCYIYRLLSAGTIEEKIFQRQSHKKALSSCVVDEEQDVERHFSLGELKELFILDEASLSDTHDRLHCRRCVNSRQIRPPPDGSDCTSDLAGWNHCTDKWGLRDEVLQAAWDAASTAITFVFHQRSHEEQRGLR
Kind of assay: RAD54 Holliday junction migration blockers – biochemical, fluorescence, cherry-picked samples, dose series, confirmation (AID 651657). Type of assay: functional.

The nature of assay [2]: blockers of HIV-1 envelope-mediated cell-cell fusion – cherry-pick, dose response (AID 652057). Type of assay: functional, cell-based.
The nature of assay [3]: blockers of HIV-1 ZM109 envelope-driven cell-cell fusion – HeLa effector, CEM target cells, luciferase, cherry-pick, dose response (AID 652058).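 Further: luciferase signal from HIV-1 Env mediated cell-cell fusion of effector and target cells.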 The class given is functional, cell-based.
Assay [4] in a line: HIV-1 AD8 envelope cell-cell fusion blockers – cherry-pick, dose response (AID 652062).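 Further: luciferase signal from cell-cell fusion driven by HIV-1 clade B AD8 Env; potency is for inhibitors of fusion seen as a drop in luminescence.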 The class given is functional, cell-based.
The target in assay [5] is T3, Short transient receptor potential channel 4 (Mus musculus, UniProt Q9QUQ5).
T3 sequence (Q9QUQ5 whole entry): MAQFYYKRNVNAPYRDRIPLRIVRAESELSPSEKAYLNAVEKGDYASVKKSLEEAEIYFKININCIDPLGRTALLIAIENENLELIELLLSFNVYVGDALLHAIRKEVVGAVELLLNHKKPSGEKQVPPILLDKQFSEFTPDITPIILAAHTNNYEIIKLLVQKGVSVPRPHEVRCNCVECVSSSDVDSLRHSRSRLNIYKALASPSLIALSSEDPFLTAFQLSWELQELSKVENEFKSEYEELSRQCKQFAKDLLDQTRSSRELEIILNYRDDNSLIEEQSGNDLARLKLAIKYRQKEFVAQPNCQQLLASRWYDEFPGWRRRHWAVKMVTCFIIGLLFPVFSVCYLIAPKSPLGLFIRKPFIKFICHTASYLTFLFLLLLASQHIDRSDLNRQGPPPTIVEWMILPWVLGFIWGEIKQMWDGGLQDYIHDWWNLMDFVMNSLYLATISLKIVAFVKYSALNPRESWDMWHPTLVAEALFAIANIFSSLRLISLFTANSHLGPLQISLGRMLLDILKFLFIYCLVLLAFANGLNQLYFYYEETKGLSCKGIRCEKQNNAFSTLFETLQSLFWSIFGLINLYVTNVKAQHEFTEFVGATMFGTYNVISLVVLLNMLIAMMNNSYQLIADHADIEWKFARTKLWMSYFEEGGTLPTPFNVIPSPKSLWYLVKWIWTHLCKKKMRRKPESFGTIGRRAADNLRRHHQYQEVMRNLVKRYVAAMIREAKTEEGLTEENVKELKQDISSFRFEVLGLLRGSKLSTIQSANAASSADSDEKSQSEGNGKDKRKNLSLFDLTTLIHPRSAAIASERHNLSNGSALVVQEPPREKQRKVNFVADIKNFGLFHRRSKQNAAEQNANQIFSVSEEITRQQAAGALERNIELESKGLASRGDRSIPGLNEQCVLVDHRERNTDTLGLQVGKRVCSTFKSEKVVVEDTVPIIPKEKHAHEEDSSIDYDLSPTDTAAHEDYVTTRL
Kind of assay: block of DAMGO-driven TRPC4 calcium entry – cell-based, HEK293 TRPC4/mu-opioid, Fluo-4 calcium, dose response (AID 434942).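 Further: potency of inhibitors blocking the TRPC4 calcium response.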 The class given is functional.

Assay [6] in a line: off-target signal loss in HeLa-CEM21 co-culture – HeLa F-luc CTL cells, cherry-picked, counter-screen for HIV-1 Env fusion inhibitor project, dose response (AID 652040).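 Further: potency for signal decrease marking cytotoxic or nonspecific inhibition.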 Type of assay: functional, cell-based.
For assay [7], the target named is T4, DNA repair protein RAD52 homolog (Homo sapiens, UniProt P43351).
T4 sequence (P43351 whole entry): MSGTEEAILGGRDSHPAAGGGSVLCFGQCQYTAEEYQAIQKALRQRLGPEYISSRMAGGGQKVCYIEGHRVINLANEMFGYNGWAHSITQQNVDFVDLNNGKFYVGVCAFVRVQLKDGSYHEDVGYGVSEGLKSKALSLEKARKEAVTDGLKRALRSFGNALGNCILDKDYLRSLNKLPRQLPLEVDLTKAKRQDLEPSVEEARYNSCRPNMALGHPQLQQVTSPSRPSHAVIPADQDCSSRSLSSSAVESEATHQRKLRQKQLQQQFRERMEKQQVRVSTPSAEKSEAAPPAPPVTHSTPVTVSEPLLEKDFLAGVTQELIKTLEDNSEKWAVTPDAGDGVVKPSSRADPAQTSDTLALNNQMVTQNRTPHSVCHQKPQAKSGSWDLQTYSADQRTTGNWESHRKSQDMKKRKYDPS
The class given is functional, biochemical.

Assay [8] concerns the target Heat shock protein HSP 90-alpha (Homo sapiens, UniProt P07900). Type of assay: functional, organism-based.
For assay [9], the target named is T5, Ubiquitin-conjugating enzyme E2 N (Homo sapiens, UniProt P61088).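 Further: Dose-response confirmation in a TR-FRET assay detecting UBC13-driven polyubiquitin chain formation, inhibition measured.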
T5 sequence (P61088 whole entry): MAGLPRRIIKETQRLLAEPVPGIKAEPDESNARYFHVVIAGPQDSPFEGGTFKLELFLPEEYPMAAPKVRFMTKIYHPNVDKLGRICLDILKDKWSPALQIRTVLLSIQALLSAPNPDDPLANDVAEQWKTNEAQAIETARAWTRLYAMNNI
Type of assay: functional.

Another assay deals with INS1. Kind of assay: INS-1E survival protection against cytokine death – cell-based, luminescence, retest, dose response (AID 449756).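 Further: cell death triggered by IL-1 beta plus TNF-alpha plus IFN-gamma mixture; protective hits raise ATP signal compared with cytokine alone wells.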 Type of assay: functional. The note with it: Rattus norvegicus.
Assay [10] can be described thus: P. falciparum Dd2 growth inhibitors, dose response, SYBR Green, cherry-picked samples (AID 1159567). The class given is functional, cell-based.
Another assay concerns the target Large T antigen (Simian virus 40, UniProt P03070). The class given is functional, Betapolyomavirus macacae.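 Further: Confirmatory-stage PubChem screen for compounds that inhibit SV40 T antigen.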

Active and inactive are the calls of the source.

What is called IC50 is the concentration that inhibits the measured activity by half. In general, AC50 refers to the midpoint of the concentration-response curve, whichever way the signal moves. Usually EC50 stands for the concentration needed to bring the measured effect to its halfway point.

Nonstructural protein 1, sequence (Q194T2 whole entry): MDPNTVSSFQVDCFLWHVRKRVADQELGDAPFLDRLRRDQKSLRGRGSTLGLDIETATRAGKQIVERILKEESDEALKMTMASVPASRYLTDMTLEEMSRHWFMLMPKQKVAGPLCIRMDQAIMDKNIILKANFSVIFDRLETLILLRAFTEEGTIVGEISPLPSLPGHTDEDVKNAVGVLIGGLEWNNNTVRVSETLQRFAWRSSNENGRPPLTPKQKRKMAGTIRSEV
Large T antigen, sequence (P03070 whole entry): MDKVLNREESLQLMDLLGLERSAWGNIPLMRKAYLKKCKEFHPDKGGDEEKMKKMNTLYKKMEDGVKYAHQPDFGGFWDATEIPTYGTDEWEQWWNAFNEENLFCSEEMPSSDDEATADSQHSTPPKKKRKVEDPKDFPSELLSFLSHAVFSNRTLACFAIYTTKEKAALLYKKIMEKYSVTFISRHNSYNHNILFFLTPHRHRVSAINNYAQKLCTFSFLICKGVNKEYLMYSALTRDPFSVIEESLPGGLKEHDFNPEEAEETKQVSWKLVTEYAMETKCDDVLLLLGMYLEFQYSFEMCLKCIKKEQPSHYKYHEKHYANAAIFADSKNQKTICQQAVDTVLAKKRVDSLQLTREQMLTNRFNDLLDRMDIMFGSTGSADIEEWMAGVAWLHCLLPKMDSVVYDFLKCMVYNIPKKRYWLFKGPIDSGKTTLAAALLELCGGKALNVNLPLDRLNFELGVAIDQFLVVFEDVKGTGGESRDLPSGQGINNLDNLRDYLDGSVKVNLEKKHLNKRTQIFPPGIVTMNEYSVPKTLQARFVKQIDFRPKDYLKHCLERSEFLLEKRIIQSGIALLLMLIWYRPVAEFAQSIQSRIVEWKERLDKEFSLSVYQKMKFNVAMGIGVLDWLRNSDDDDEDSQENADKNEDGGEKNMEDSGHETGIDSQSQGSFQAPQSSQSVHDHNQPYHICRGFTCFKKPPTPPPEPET

For `CC(=O)N1/C(=C/c2ccc(N(C)C)cc2)C(=O)c2ccccc21`, the IC50 is 16.7 µM (active) at Nonstructural protein 1 and 76.9 µM (inactive) at Protein skinhead-1.
Regarding `O=C(CSc1n[nH]c(-c2ccccn2)n1)Nc1ccccc1F`, at Nonstructural protein 1, the concentration for half-maximal inhibition (IC50) was 7.23 µM (active).
Take `CN1CCN(c2cc(N3CCNCC3)ccc2[N+](=O)[O-])CC1`: the AC50 in assay [1] is 14.5 µM (active).
For the compound `CCN(CC)CCCNc1nc(-c2ccccc2)nc2ccccc12`, the half-maximal activity concentration (AC50) in assay [1] was 13 µM (active).
For the compound `Clc1ccc(-c2csc3ncnc(NCCN4CCOCC4)c23)cc1`, the AC50 in assay [2] was 3.74 µM (active); in assay [3] it was 2.24 µM (active); in [4], 18.1 µM (active); in assay [6] it was > 70 µM (inactive). Besides, in [5], the EC50 is 3.35 µM (active).
Consider `O=C(NN=Cc1cccc([N+](=O)[O-])c1)c1cc[n+](CCO)cc1`, for which the AC50 in [7] was 14.1 µM (active).
Regarding `COc1ccc(Nc2cc(C)nc3ccc(OC)cc23)cc1`, the figures for the AC50 in assay [1] and in assay [7] were 20.5 µM (active) and 15 µM (active), respectively. The concentration for a half-maximal effect (EC50) in assay [5] was 4.73 µM (active).
With `CCOc1ccccc1-c1c2cc(O)c(=O)cc-2oc2cc(O)c(O)cc12`, in assay [8], the AC50 is 6.24 µM (active). For the same compound, on Nonstructural protein 1, the IC50 was 28.1 µM (active).
For the compound `CN(C)c1ccc(NC(=O)CN2CCC(NC(=O)C3CCCCC3)CC2)cc1`, the IC50 in assay [9] is > 20 µM (inactive). Also, in assay [7], the AC50 was 14.8 µM (active).
For `CCN(C[C@H]1N[C@@](C)(C(=O)OC)[C@H]2C(=O)N(Cc3ccccc3)C(=O)[C@@H]12)C(=O)Nc1ccccc1`, the AC50 is 2.92 µM (active) in assay [2], 2.42 µM (active) in assay [3], 2.56 µM (active) in assay [4] and 3.81 µM (active) in assay [6].
Take `CN(C)CCNC(=O)c1cccc(-c2cnc3c(NC=O)cc(-c4ccc(S(C)(=O)=O)cc4)cn23)c1`: the half-maximal activity concentration (AC50) in [1] was 24.1 µM (active); in assay [7], 5.29 µM (active).
Regarding `Nc1nonc1-n1nnc(C(=O)N/N=C/c2ccccc2O)c1CN1CCCC1`, at Nonstructural protein 1, the half-inhibitory concentration (IC50) is 11.4 µM (active). Moreover, the AC50 in the assay on INS1 was 5.79 µM (active).
Take `O=C(C[C@H]1CC[C@@H]2[C@H](COC[C@H](O)CN2Cc2cc(F)ccc2F)O1)N[C@@H]1CCN(Cc2ccccc2)C1`: the AC50 in assay [10] was 7.42 µM (active).
Regarding `CN1c2ccc(-c3ccccc3)cc2[C@@H]2[C@@H](CCN2C(=O)c2ccccc2)[C@H]1CO`, in assay [10], the half-maximal activity concentration (AC50) was 8.29 µM (active).
`CN1CCc2ccccc2Cc2[nH]c3ccccc3c2CC1`: the values for the AC50 in assay [2], in assay [3] and in assay [6] were 25.6 µM (active), 8.06 µM (active) and > 70 µM (inactive), respectively.
As to `CCOC(=O)c1cnc2c(C)cccc2c1NCCCN1CCOCC1`, in [1], the AC50 was 16.6 µM (active).
In the case of `CN1CCN(c2nc(Nc3ccc(O)cc3)nc3ccccc23)CC1`, the IC50 on Large T antigen was 8.58 µM (active). In addition, in assay [7], the AC50 is 5.21 µM (active).
As for `COc1cc2c(cc1OC)-c1cc3ccc(OC)c(OC)c3c[n+]1CC2` [PALMATINE CHLORIDE], the AC50 in [7] was 5.19 µM (active).

For the origin of these results see ChEMBL document CHEMBL1201862, “PubChem BioAssay data set” (2004).
